# Laboratory results as given in ChEMBL document CHEMBL5726785, “TrkA kinase inhibitors, compositions and methods thereof” (2018).
# Molecular target: High affinity nerve growth factor receptor (Homo sapiens, UniProt P04629)
# Assay: TrkA Receptor : TrkA functional activity was measured using a DiscoverX PathHunter assay. In this assay, U2OS cells are express TrkA receptor as a fusion with the weakly complementing fragment of B-galactosidase, which DiscoverX calls “Prolink (PK)”; additionally, Shc1 is fused with a larger fragment, which is called “Enzyme Acceptor (EA)”. Activation of the TrkA receptor, upon NGF addition, results in the kinase domain being phosphorylated, resulting in subsequent recruitment of Shc1-EA protein. That recruitment results in an active B-galactosidase enzyme that is detected by addition of a chemiluminescent substrate.All reagents were purchased from DiscoverX, except for the receptor agonists (NGF, BDNF, NT3) which were purchased from Peprotech. Cells were expanded and frozen into cryovials (TrkA p75 @ passage 13, 1.5×10^7 cells/vial; TrkC p75 @ passage 11, 1.5×10^7 cells/vial in InVitrogen Recovery Cell Freezing media), and stored in the vapor phase of liquid nitrogen, and thawed immediately before use. Thawed cells were added to a 384-well plate (BD Falcon 384-well white/clear, TC surface 120 uL assay plates (353963), 20 uL of 0.375e6 cells/mL=>7500 cells/well), and allowed to incubate overnight. […]
# Chain of High affinity nerve growth factor receptor (P04629 whole entry, the tested form may be a part): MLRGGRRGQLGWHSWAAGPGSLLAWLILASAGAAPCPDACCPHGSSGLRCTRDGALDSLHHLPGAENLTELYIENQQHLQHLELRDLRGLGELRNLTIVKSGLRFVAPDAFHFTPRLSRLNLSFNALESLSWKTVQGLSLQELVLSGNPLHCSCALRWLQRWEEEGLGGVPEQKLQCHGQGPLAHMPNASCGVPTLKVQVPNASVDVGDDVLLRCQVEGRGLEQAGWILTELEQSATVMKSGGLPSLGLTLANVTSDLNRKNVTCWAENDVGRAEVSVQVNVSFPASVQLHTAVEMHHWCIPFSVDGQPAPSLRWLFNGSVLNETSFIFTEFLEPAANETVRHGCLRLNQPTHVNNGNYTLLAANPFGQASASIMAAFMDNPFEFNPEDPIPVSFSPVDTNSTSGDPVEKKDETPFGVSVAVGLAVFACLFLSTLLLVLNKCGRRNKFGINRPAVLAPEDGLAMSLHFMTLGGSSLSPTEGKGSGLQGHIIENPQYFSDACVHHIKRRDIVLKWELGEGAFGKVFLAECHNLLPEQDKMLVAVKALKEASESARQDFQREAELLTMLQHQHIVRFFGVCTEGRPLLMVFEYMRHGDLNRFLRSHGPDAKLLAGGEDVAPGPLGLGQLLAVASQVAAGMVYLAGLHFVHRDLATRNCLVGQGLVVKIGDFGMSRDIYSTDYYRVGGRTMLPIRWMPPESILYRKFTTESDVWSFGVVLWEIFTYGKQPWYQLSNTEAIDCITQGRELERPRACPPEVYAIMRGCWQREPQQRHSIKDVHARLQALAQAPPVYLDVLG
smiles,measurement,value
Cc1ncc(NC(=O)Nc2c(-c3ccccc3)[nH]c3ccccc23)c(-c2ccccc2)n1,IC50,570 nM
